The values that follow come from ChEMBL document CHEMBL2029308, “Synthesis and anti-leishmanial activity of 1-aryl-β-carboline derivatives against Leishmania donovani” (Bioorg Med Chem Lett, 2012).

For series [1], the system named is Leishmania donovani. Kind of series: Antileishmanial activity against Leishmania donovani MHOM/ET/67/HU3 after 72 hrs by MTT assay. It is filed as functional, organism-based. As to conditions: MHOM/ET/67/HU3, 72 h. (In general: Tetrazolium dyes change colour on reduction, which living cells bring about.)
Series [2] in a line: Cytotoxicity against mouse peritoneal macrophages. It is filed as cell-based, Peritoneal macrophage cell.
Series [3] in a line: Selectivity ratio of CC50 for mouse peritoneal macrophages to IC50 for Leishmania donovani MHOM/ET/67/HU3.

The structures appear in SMILES notation. Bounds are passed on as bounds.

As a reminder, the IC50 is the concentration at which inhibition is half-maximal. Low readings indicate greater potency, high ones weaker potency. Usually CC50 stands for the concentration at which the toxic effect on the cells reaches its halfway point. High values mean lower toxicity to the cells, low ones greater toxicity to the cells. `CC(C)(C)c1ccc(C(=O)Nc2ccc(-c3nccc4c3[nH]c3ccccc34)cc2)cc1` displayed an IC50 in series [1] above 100 µM. For the same molecule, the CC50 in series [2] was above 50 µM.

With `O=C(Nc1ccc(-c2nccc3c2[nH]c2ccccc23)cc1)c1ccc(F)c(F)c1`, the IC50 in series [1] is 13.1 µM. The same molecule had a CC50 in series [2] above 50 µM.

Molecule `COc1ccc(C(=O)Nc2ccc(-c3nccc4c3[nH]c3ccccc34)cc2)cc1` registered an IC50 in series [1] of 12.3 µM. This molecule also registered a CC50 in series [2] above 50 µM.

In the case of `CCCCCCCCCCCCCC(=O)Nc1ccc(-c2nccc3c2[nH]c2ccccc23)cc1`, the IC50 in series [1] was above 100 µM. Also, in series [2], the CC50 was above 50 µM.

`CCCCC(=O)Nc1ccc(-c2nccc3c2[nH]c2ccccc23)cc1` returned an IC50 in series [1] of 19.7 µM. Further, the CC50 in series [2] was above 50 µM.

In turn, `O=C(Nc1ccc(-c2nccc3c2[nH]c2ccccc23)cc1)c1cccs1` gave an IC50 in series [1] of 15 µM. In series [2], this molecule registered a CC50 above 50 µM.

In the case of `O=C(Nc1ccc(-c2nccc3c2[nH]c2ccccc23)cc1)c1ccc2ccccc2c1`, the IC50 in series [1] was found to be 8.84 µM. For the same molecule, in series [2], the CC50 is above 50 µM.

`Nc1ccc(-c2nccc3c2[nH]c2ccccc23)cc1` showed an IC50 in series [1] of 46.6 µM. In series [2], this molecule had a CC50 above 50 µM.

With `CC(=O)Nc1ccc(-c2nccc3c2[nH]c2ccccc23)cc1`, the IC50 in series [1] is 2.16 µM. The molecule also returned a CC50 in series [2] above 50 µM. In series [3], the “Ratio CC50/IC50” value is above 20.

In series [1], `Cc1ccc(C(=O)Nc2ccc(-c3nccc4c3[nH]c3ccccc34)cc2)cc1` returned an IC50 of 14.3 µM. This molecule showed a CC50 in series [2] above 50 µM.

The molecule `CCCCCCCCCCCCCCCCOP(=O)([O-])OCC[N+](C)(C)C` [MILTEFOSINE] registered an IC50 in series [1] of 12.1 µM.

`O=[N+]([O-])c1ccc(-c2[nH]ccc3c4ccccc4nc2-3)cc1` displayed an IC50 in series [1] above 100 µM. Besides, the CC50 in series [2] is above 50 µM.

In series [1], `O=C(O)C1Cc2c([nH]c3ccccc23)C(c2ccc([N+](=O)[O-])cc2)N1` (stereo unspecified) registered an IC50 above 100 µM. In series [2], the CC50 is above 50 µM.

In series [1], `O=C(Nc1ccc(-c2nccc3c2[nH]c2ccccc23)cc1)c1ccccc1` yielded a half-maximal inhibitory concentration (IC50) of 9.68 µM. This molecule also displayed a CC50 in series [2] above 50 µM.

In turn, `O=C(/C=C/c1ccccc1)Nc1ccc(-c2nccc3c2[nH]c2ccccc23)cc1` returned an IC50 in series [1] of 7.7 µM. Moreover, in series [2], the CC50 was above 50 µM.

With `O=C(Nc1ccc(-c2nccc3c2[nH]c2ccccc23)cc1)c1ccc(F)cc1F`, in series [1], the IC50 was above 100 µM. The CC50 in series [2] is above 50 µM.

For `N#Cc1ccc(C(=O)Nc2ccc(-c3nccc4c3[nH]c3ccccc34)cc2)cc1`, the IC50 in series [1] worked out at 5.31 µM. Besides, in series [2], the CC50 is above 50 µM.

In series [1], `CCCCCCCCCCCC(=O)Nc1ccc(-c2nccc3c2[nH]c2ccccc23)cc1` had an IC50 above 100 µM. In series [2], this molecule came in with a CC50 above 50 µM.

Turning to `O=C(Nc1ccc(-c2nccc3c2[nH]c2ccccc23)cc1)c1ccco1`, inhibition in series [1] was half-maximal at 6.38 µM (IC50). In series [2], the CC50 was above 50 µM.

As for `O=C(Nc1ccc(-c2nccc3c2[nH]c2ccccc23)cc1)c1ccc(C(F)(F)F)cc1`, the IC50 in series [1] was above 100 µM. The same molecule came in with a CC50 in series [2] above 50 µM.

`C=CCCCCCCCCC(=O)Nc1ccc(-c2nccc3c2[nH]c2ccccc23)cc1` returned an IC50 in series [1] above 100 µM. The same molecule showed a CC50 in series [2] above 50 µM.

In series [1], `Cc1cc(C(=O)Nc2ccc(-c3nccc4c3[nH]c3ccccc34)cc2)c(C)o1` had an IC50 of 30.1 µM. For the same molecule, the CC50 in series [2] was above 50 µM.

Molecule `O=C(Nc1ccc(-c2nccc3c2[nH]c2ccccc23)cc1)c1cccc2ccccc12` gave an IC50 in series [1] above 100 µM. In addition, the CC50 in series [2] is above 50 µM.
